Assay results from publication PMC4780272, “New Concept of the Biosynthesis of 4-Alkyl-L-Proline Precursors of Lincomycin, Hormaomycin, and Pyrrolobenzodiazepines: Could a γ-Glutamyltransferase Cleave the C–C Bond?” (Frontiers in Microbiology, 2016).

Target: T1, LmbW (Streptomyces lincolnensis, UniProt A9Y8T3)
T1 construct: gene SLINC_0255; lmbW amplified from LK6 cosmid, cloned in pET42b(+), produced in E. coli BL21(DE3), purified as described for LmbC
T1 sequence (A9Y8T3 1-350): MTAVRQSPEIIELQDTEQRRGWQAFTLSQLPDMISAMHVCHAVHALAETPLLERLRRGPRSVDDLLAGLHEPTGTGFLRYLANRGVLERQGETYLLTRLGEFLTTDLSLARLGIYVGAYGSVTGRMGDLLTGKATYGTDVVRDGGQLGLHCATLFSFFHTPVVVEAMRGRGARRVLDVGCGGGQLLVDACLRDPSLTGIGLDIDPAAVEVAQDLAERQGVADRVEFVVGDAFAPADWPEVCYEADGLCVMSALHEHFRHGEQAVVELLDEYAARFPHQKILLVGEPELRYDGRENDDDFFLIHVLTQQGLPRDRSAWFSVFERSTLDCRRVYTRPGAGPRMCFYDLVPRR
Experiment: LC-MS of methylated product
Type: biochemical
Settings: methyl donor; co-substrate 3 4 mM, S-adenosylmethionine 4 mM, glycine buffer 40 mM pH 9.5, 28°C, 1 h

C[S+](CC[C@H](N)C(=O)O)C[C@H]1O[C@@H](n2cnc3c(N)ncnc32)[C@H](O)[C@@H]1O (stereo partly shown) [S-adenosylmethionine]
LC-MS of methylated product: In the reaction with LmbW and S-adenosylmethionine, we identified a product
